Measurements reported in US9445590B2, “Fungicidal composition comprising a pyridylethylbenzamide derivative and a compound capable of inhibiting the transport of electrons of the respiratory chain in phytopathogenic fungal organisms” (BAYER INTELLECTUAL PROPERTY GMBH, priority 2004, dated 2016).

Tests used:
Botrytis cinerea = experiment: Efficacy against Botrytis cinerea on gherkin plants (preventive spray); format: in vivo; conditions: Botrytis cinerea, grading 5 to 7 days after contamination
Method: (§1) The active ingredients tested are prepared by potter homogenisation in a mixture of acetone/tween/water. This suspension is then diluted with water to obtain the desired active material concentration.
(§2) Gherkin plants (Petit vert de Paris variety) in starter cups, sown on a 50/50 peat soil-pozzolana substrate and grown at 18-20° C., are treated at the cotyledon Z11 stage by spraying with the aqueous suspension described above. Plants, used as controls, are treated with an aqueous solution not containing the active material.
After 24 hours, the plants are contaminated by depositing drops of an aqueous suspension of Botrytis cinerea spores (150,000 spores per ml) on upper surface of the leaves. The spores are collected from a 15-day-old culture and are suspended in a nutrient solution composed of: • 20 g/L of gelatine • 50 g/L of cane sugar • 2 g/L of NH4NO3 • 1 g/L of KH2PO4
The contaminated gherkin plants are settled for 5/7 days in a climatic room at 15-11° C. (day/night) and at 80% relative humidity. Grading is carried out 5 to 7 days after contamination, in comparison with the control plants.
as §2, with “Z 11” for “Z11”
(§3) The formulated compounds are diluted with water to obtain the desired active material concentration.

Alternaria brassicae [1] = experiment: Efficacy against Alternaria brassicae on radish plants (preventive spray); format: in vivo; conditions: Example 13, dose 4 ppm, grading 6 to 7 days after contamination
Method: as §3
Radish plants (Pernot variety) in starter cups, sown on a 50/50 peat soil-pozzolana substrate and grown at 18-20° C., are treated at the cotyledon stage by spraying with the aqueous suspension described above.
(§4) Plants, used as controls, are treated with an aqueous solution not containing the active material.
After 24 hours, the plants are contaminated by spraying them with an aqueous suspension of Alternaria brassicae spores (40,000 spores per cm^3). The spores are collected from a 12-13-day-old culture.
The contaminated radish plants are incubated for 6-7 days at about 18° C., under a humid atmosphere.
Grading is carried out 6 to 7 days after the contamination, in comparison with the control plants.

Alternaria brassicae [2] = experiment: Efficacy against Alternaria brassicae (in vitro), growth on PDA medium; format: cell-based; conditions: Alternaria brassicae, 336 h, radial growth after 14 days
Method: The growth of Alternaria brassicae was followed on PDA medium containing the compounds alone or in mixtures. The PDA medium is prepared by mixing 39 grams of PDA (Merck) in 1 litter of demineralised water. The medium is sterilized by autoclave 15 minutes at 121° C. The compounds are dissolved in acetone and added to the medium before pouring it in Petri dishes. After medium drying, the fungus is inoculated on the medium and allowed to growth at 19° C. The percentage of efficacy is noted after 14 days of growth (measurement of the radial growth) of the fungus in comparison with a control. […]

Pyrenophora teres = experiment: Efficacy against Pyrenophora teres on barley plants (preventive spray); format: in vivo; conditions: 288 h, grading 12 days after contamination
Method: as §1
as §2, with “Barley” for “Gherkin”, “(Express” for “(Petit vert de Paris”, “12°” for “18-20°”, “1-leaf” for “cotyledon Z11”, “stage (10 cm tall)” for “stage”
After 24 hours, the plants are contaminated by spraying them with an aqueous suspension of Pyrenophora teres spores (12 000 spores per ml). The spores are collected from a 12-day-old culture. The contaminated barley plants are incubated for 24 hours at about 20° C. and at 100% relative humidity, and then for 12 days at 80% relative humidity.
Grading (% of efficacy) is carried out 12 days after the contamination, in comparison with the control plants.

[3] = test system: Erysiphe graminis f. sp. tritici; experiment: Efficacy against Erysiphe graminis f. sp. tritici on wheat plants (preventive spray); format: in vivo; conditions: Blumeria graminis, grading 7 to 14 days after contamination
Method: as §1
(§5) Wheat plants (Audace variety) in starter cups, sown on 50/50 peat soil-pozzolana substrate and grown at 12° C., are treated at the 1-leaf stage (10 cm tall) by spraying with the aqueous suspension described above.
as §4
After 24 hours, the plants are contaminated by dusting them with Erysiphe graminis f. sp. tritici spores, the dusting being carried out using diseased plants.
Grading is carried out 7 to 14 days after the contamination, in comparison with the control plants.
as §3
as §5, with “above. Plants, used as controls, are treated with an aqueous solution not containing the active material.” for “above.”

Sphaerotheca fuliginea = experiment: Efficacy against Sphaerotheca fuliginea on gherkin plants (preventive spray); format: in vivo; conditions: Podosphaera fuliginea, 504 h, grading 21 days after contamination
Method: as §1
as §2, with “(Vert petit” for “(Petit vert”, “20° C./23°” for “18-20°”, “2-leaves” for “cotyledon Z11”
After 24 hours, the plants are contaminated by spraying them with an aqueous suspension of Sphaerotheca fuliginea spores (100 000 spores per ml). The spores are collected from a contaminated plants. The contaminated gherkin plants are incubated at about 20° C./25° C. and at 60/70% relative humidity.
Grading (% of efficacy) is carried out 21 days after the contamination, in comparison with the control plants.

Structure (SMILES): O=C(NCCc1ncc(C(F)(F)F)cc1Cl)c1ccccc1C(F)(F)F [Compound 1, N-{2-[3-chloro-5-(trifluoromethyl)-2-pyridinyl]ethyl}-2-trifluoromethylbenzamide]
- Emax at 37 ppm (Botrytis cinerea; Example 5, dose 37 ppm): 0%
- Emax at 111 ppm (Botrytis cinerea; Example 5, dose 111 ppm): 60%
- Emax at 333 ppm (Botrytis cinerea; Example 5, dose 333 ppm): 90%
- Emax at 37 ppm (Botrytis cinerea; Example 6, dose 37 ppm): 0%
- Emax at 111 ppm (Botrytis cinerea; Example 6, dose 111 ppm): 60%
- Emax at 333 ppm (Botrytis cinerea; Example 6, dose 333 ppm): 100%
- Emax at 12 ppm (Botrytis cinerea; Example 7, dose 12 ppm): 0%
- Emax at 37 ppm (Botrytis cinerea; Example 7, dose 37 ppm): 40%
- Emax at 111 ppm (Botrytis cinerea; Example 7, dose 111 ppm): 92%
- Emax at 37 ppm (Botrytis cinerea; Example 8, dose 37 ppm): 3%
- Emax at 111 ppm (Botrytis cinerea; Example 8, dose 111 ppm): 58%
- Emax at 333 ppm (Botrytis cinerea; Example 8, dose 333 ppm): 75%
- Emax at 37 ppm (Botrytis cinerea; Example 10, dose 37 ppm): 72%
- Emax at 31.2 ppm (Botrytis cinerea; Example 14, dose 31.2 ppm, formulated compounds): 20%
- Emax at 62.5 ppm (Botrytis cinerea; Example 14, dose 62.5 ppm, formulated compounds): 40%
- Emax at 4 ppm (Alternaria brassicae [1]): 40%
- Emax at 0.025 ppm (Alternaria brassicae [2]; Example 2, dose 0.025 ppm): 34%
- Emax at 0.05 ppm (Alternaria brassicae [2]; Example 2, dose 0.05 ppm): 45%
- Emax at 0.1 ppm (Alternaria brassicae [2]; Example 2, dose 0.1 ppm): 53%
- Emax at 0.25 ppm (Alternaria brassicae [2]; Example 2, dose 0.25 ppm): 76%
- Emax at 0.5 ppm (Alternaria brassicae [2]; Example 2, dose 0.5 ppm): 90%
- Emax at 4 g/ha (Pyrenophora teres; Example 1, dose 4 g/ha): 20%
- Emax at 8 g/ha (Pyrenophora teres; Example 1, dose 8 g/ha): 50%
- Emax at 125 ppm ([3]; Example 4, dose 125 ppm): 20%
- Emax at 250 g/ha ([3]; Example 9, dose 250 g/ha, formulated compounds): 50%
- Emax at 4 ppm (Sphaerotheca fuliginea; Example 11, dose 4 ppm): 10%
- Emax at 8 ppm (Sphaerotheca fuliginea; Example 11, dose 8 ppm): 15%
- Emax at 15 ppm (Sphaerotheca fuliginea; Example 11, dose 15 ppm): 25%
- Emax at 7.8 ppm (Sphaerotheca fuliginea; Example 12, dose 7.8 ppm): 10%
- Emax at 15.6 ppm (Sphaerotheca fuliginea; Example 12, dose 15.6 ppm): 18%
- Emax at 31.2 ppm (Sphaerotheca fuliginea; Example 12, dose 31.2 ppm): 86%
